Data as given in patent publication US20260297121A1, “MITHRAMYCIN (MTM) 2’ OXIMES” (University of Kentucky Research Foundation, priority 2023, published 2026).
Like-named read-outs stand apart in the source and are kept apart here.

Key:
log P = format: physicochemical
[1] = Clearance (CL) / pharmacokinetics; format: in vivo, mice; details: for clearance: mouse, plasma, iv
Method: (§1) Exemplary compounds of the presently-disclosed subject matter were assessed for activity, including clearance, potency, and selectivity. Results from studies are compiled in Tables 2-4.
(§2) Desirable clearance was identified at lower values of mL hr^−1kg^−1 (e.g., about ≤10 mL hr^−1 kg^−1), desirable potency was identified at lower values of IC50 (e.g., about ≤10 nM in TC32 cells), and desired selectivity was identified at higher ratios of IC50 in PC3/IC50 in TC32 (e.g. about >10).
Pharmacokinetics of exemplary compounds of the presently-disclosed subject matter were studied in mice following bolus IV dosing. Groups of three mice were administered the compound(s) and blood samples were collected via saphenous bleed. Plasma was separated by centrifugation and extracted to quantitate analytes by LC/MS/MS. Sample analysis followed upon the system meeting system suitability criteria customary for fit for purpose analytical methods. FIG. 1A includes data comparing YL-C09 to mithramycin (MTM) dosed separately. FIG. 1B includes data for YL-B171, YL-C110 and MTM dosed in cassette format.

TC32 cells = assay: Potency IC50 in TC32 cells and selectivity; format: cell-based; details: Homo sapiens
Method: as §1, §2

PC3 [2] = assay: IC50 in PC3 cells; format: cell-based; details: head prints PC2, text PC3
Method: as §1, §2

TC32 = assay: Cytotoxicity, resazurin fluorescence, TC32; format: cell-based; details: Homo sapiens, TC-32, 72 h, read-out: GI50 TC32, Table 5
Method: (§3) Exemplary compounds of the presently-disclosed subject matter were assessed for cytotoxicity (Table 5) in Ewing sarcoma (TC32) and non-Ewing (PC3 prostate cancer). […] Cells (1000-5000/well) were seeded in 96-well plates and allowed to attach and grow for 24 hr prior to adding compounds in half-log increments from 0.3 nM-10 μM. Cell viability was assessed after 72 hr continuous incubation with compounds using resazurin fluorescence. GI50 values were estimated using GraphPad Prism.

PC3 [3] = assay: Cytotoxicity, resazurin fluorescence, PC3; format: cell-based; details: for GI50: Homo sapiens, PC-3, 72 h, read-out: GI50 PC3, Table 5; for GI50 PC3: Table 5, 72 hr
Method: as §3

[4] = TC-32, Table 2, read-out: IC50 TC32
[5] = TC-32, Table 4, read-out: IC50 TC32
[6] = Homo sapiens, PC-3, read-out: IC50 PC2, Table 2
[7] = Homo sapiens, PC-3, read-out: IC50 PC2, Table 4

| Structure (SMILES) | logP (log P; Table 2) | CL ([1]; Table 4) [mL/min/kg] | PK Improvement ([1]; Table 4) | IC50 (TC32 cells; [4]) [µM] | IC50 (PC3 [2]; [6]) [µM] | GI50 PC3 (PC3 [3]) [µM] | further results |
| --- | --- | --- | --- | --- | --- | --- | --- |
| CO[C@H](C(=NOCCNC(=O)c1cc2cc(Cl)ccc2[nH]1)[C@@H](O)[C@@H](C)O)[C@@H]1Cc2cc3cc(O[C@H]4C[C@@H](O[C@H]5C[C@@H](O)[C@H](O)[C@@H](C)O5)[C@H](O)[C@@H](C)O4)c(C)c(O)c3c(O)c2C(=O)[C@H]1O[C@H]1C[C@@H](O[C@H]2C[C@@H](O[C@H]3C[C@](C)(O)[C@H](O)[C@@H](C)O3)[C@@H](O)[C@@H](C)O2)[C@H](O)[C@@H](C)O1 [YL-B152] | 2.19 | 0.733 | 35.9 | 0.00834 | 0.0176 |  | logP (log P; Table 4): 2.2; clearance ([1]; Table 2): 0.733 mL/min/kg; IC50 (TC32 cells; [5]): 0.0083 µM; IC50 (PC3 [2]; [7]): 0.0176 µM |
| COC(C(=NOCCNC(=O)c1[nH]c2ccc(Cl)cc2c1-c1ccccc1)C(O)C(C)O)C1Cc2cc3cc(OC4CC(OC5CC(O)C(O)C(C)O5)C(O)C(C)O4)c(C)c(O)c3c(O)c2C(=O)C1OC1CC(OC2CC(OC3CC(C)(O)C(O)C(C)O3)C(O)C(C)O2)C(O)C(C)O1 (stereo not drawn) [YL-B176] | 3.49 | 0.35 | 75.1 | 0.0139 | 0.178 |  | logP (log P; Table 3): 3.49; logP (log P; Table 4): 3.5; CL ([1]; Table 3): 0.35 mL/min/kg; clearance ([1]; Table 2): 0.35 mL/min/kg; IC50 (TC32 cells; TC-32, Table 3, read-out: IC50 TC32): 0.0139 µM; IC50 (TC32 cells; [5]): 0.0139 µM; IC50 (PC3 [2]; Homo sapiens, PC-3, read-out: IC50 PC2, Table 3): 0.178 µM; IC50 (PC3 [2]; [7]): 0.178 µM; GI50 (TC32): 0.117 µM; GI50 (PC3 [3]): 0.304 µM |
| COC(C(=NOCc1[nH]c2ccc(Cl)cc2c1-c1ccccc1)C(O)C(C)O)C1Cc2cc3cc(OC4CC(OC5CC(O)C(O)C(C)O5)C(O)C(C)O4)c(C)c(O)c3c(O)c2C(=O)C1OC1CC(OC2CC(OC3CC(C)(O)C(O)C(C)O3)C(O)C(C)O2)C(O)C(C)O1 (stereo not drawn) [YL-C51] | 4.19 |  |  | 0.456 | 2.79 | > 1 | clearance ([1]; Table 2): 0.25 mL/min/kg; GI50 (TC32): > 1 µM |
| CO[C@H](C(=NOCc1ccc2scnc2c1)[C@@H](O)[C@@H](C)O)[C@@H]1Cc2cc3cc(O[C@H]4C[C@@H](O[C@H]5C[C@@H](O)[C@H](O)[C@@H](C)O5)[C@H](O)[C@@H](C)O4)c(C)c(O)c3c(O)c2C(=O)[C@H]1O[C@H]1C[C@@H](O[C@H]2C[C@@H](O[C@H]3C[C@](C)(O)[C@H](O)[C@@H](C)O3)[C@@H](O)[C@@H](C)O2)[C@H](O)[C@@H](C)O1 [YL-C52] | 1.87 |  |  | 0.00641 | 0.00807 |  |  |
| CO[C@H](C(=NOCCNC(=O)c1ccc2scnc2c1)[C@@H](O)[C@@H](C)O)[C@@H]1Cc2cc3cc(O[C@H]4C[C@@H](O[C@H]5C[C@@H](O)[C@H](O)[C@@H](C)O5)[C@H](O)[C@@H](C)O4)c(C)c(O)c3c(O)c2C(=O)[C@H]1O[C@H]1C[C@@H](O[C@H]2C[C@@H](O[C@H]3C[C@](C)(O)[C@H](O)[C@@H](C)O3)[C@@H](O)[C@@H](C)O2)[C@H](O)[C@@H](C)O1 [YL-C61] | 1.12 |  |  | 0.0643 | 0.214 |  |  |
| COC(C(=NOCCNC(=O)c1[nH]c2ccc(C(F)(F)F)cc2c1-c1ccccc1)C(O)C(C)O)C1Cc2cc3cc(OC4CC(OC5CC(O)C(O)C(C)O5)C(O)C(C)O4)c(C)c(O)c3c(O)c2C(=O)C1OC1CC(OC2CC(OC3CC(C)(O)C(O)C(C)O3)C(O)C(C)O2)C(O)C(C)O1 (stereo not drawn) [YL-C66] |  | 0.2 | 131.5 |  |  |  | log P (log P; Table 3): 3.84; log P (log P; Table 4): 3.8; CL ([1]; Table 3): 0.2 mL/min/kg; IC50 (PC3 [2]; Table 3): 0.283 µM |
| CO[C@H](C(=NOCCNC(=O)c1[nH]c2ccc(C(F)(F)F)cc2c1-c1ccc(Cl)cc1)[C@@H](O)[C@@H](C)O)[C@@H]1Cc2cc3cc(O[C@H]4C[C@@H](O[C@H]5C[C@@H](O)[C@H](O)[C@@H](C)O5)[C@H](O)[C@@H](C)O4)c(C)c(O)c3c(O)c2C(=O)[C@H]1O[C@H]1C[C@@H](O[C@H]2C[C@@H](O[C@H]3C[C@](C)(O)[C@H](O)[C@@H](C)O3)[C@@H](O)[C@@H](C)O2)[C@H](O)[C@@H](C)O1 [YL-C67] |  | 0.167 | 157.8 |  |  | > 1 | log P (log P; Table 2): 4.56; log P (log P; Table 3): 4.56; log P (log P; Table 4): 4.6; CL ([1]; Table 2): 0.167 mL/min/kg; CL ([1]; Table 3): 0.167 mL/min/kg; IC50 (PC3 [2]; Table 3): 1.23 µM |
| CO[C@H](C(=NOCCNC(=O)c1[nH]c2ccc(C(F)(F)F)cc2c1-c1ccc(F)c(Cl)c1)[C@@H](O)[C@@H](C)O)[C@@H]1Cc2cc3cc(O[C@H]4C[C@@H](O[C@H]5C[C@@H](O)[C@H](O)[C@@H](C)O5)[C@H](O)[C@@H](C)O4)c(C)c(O)c3c(O)c2C(=O)[C@H]1O[C@H]1C[C@@H](O[C@H]2C[C@@H](O[C@H]3C[C@](C)(O)[C@H](O)[C@@H](C)O3)[C@@H](O)[C@@H](C)O2)[C@H](O)[C@@H](C)O1 [YL-C68] |  |  |  |  |  | > 1 | log P (log P; Table 3): 4.54 |
| COC(C(=NOCCCNC(=O)c1[nH]c2ccc(Cl)cc2c1-c1ccc(Cl)cc1)C(O)C(C)O)C1Cc2cc3cc(OC4CC(OC5CC(O)C(O)C(C)O5)C(O)C(C)O4)c(C)c(O)c3c(O)c2C(=O)C1OC1CC(OC2CC(OC3CC(C)(O)C(O)C(C)O3)C(O)C(C)O2)C(O)C(C)O1 (stereo not drawn) [YL-C95] |  |  |  |  |  | > 1 | log P (log P; Table 2): 4.69; CL ([1]; Table 2): 0.433 mL/min/kg |
| CO[C@H](C(=NOCCNC(=O)c1[nH]c2ccc(Cl)cc2c1-c1cnn(C)c1)[C@@H](O)[C@@H](C)O)[C@@H]1Cc2cc3cc(O[C@H]4C[C@@H](O[C@H]5C[C@@H](O)[C@H](O)[C@@H](C)O5)[C@H](O)[C@@H](C)O4)c(C)c(O)c3c(O)c2C(=O)[C@H]1O[C@H]1C[C@@H](O[C@H]2C[C@@H](O[C@H]3C[C@](C)(O)[C@H](O)[C@@H](C)O3)[C@@H](O)[C@@H](C)O2)[C@H](O)[C@@H](C)O1 [YL-C102] | 2.26 |  |  | 0.0074 | 0.043 |  | GI50 (TC32): 0.049 µM; GI50 (PC3 [3]): 0.334 µM |
| COc1ccc2[nH]c(C(=O)NCCON=C([C@@H](O)[C@@H](C)O)[C@@H](OC)[C@@H]3Cc4cc5cc(O[C@H]6C[C@@H](O[C@H]7C[C@@H](O)[C@H](O)[C@@H](C)O7)[C@H](O)[C@@H](C)O6)c(C)c(O)c5c(O)c4C(=O)[C@H]3O[C@H]3C[C@@H](O[C@H]4C[C@@H](O[C@H]5C[C@](C)(O)[C@H](O)[C@@H](C)O5)[C@@H](O)[C@@H](C)O4)[C@H](O)[C@@H](C)O3)c(-c3ccc(Cl)cc3)c2c1 [YL-C114] |  |  |  |  |  |  | log P (log P; Table 2): 3.58; CL ([1]; Table 2): 0.467 mL/min/kg |
| CO[C@H](C(=NOCCNC(=O)c1[nH]c2ccc(Cl)cc2c1C1CC1)[C@@H](O)[C@@H](C)O)[C@@H]1Cc2cc3cc(O[C@H]4C[C@@H](O[C@H]5C[C@@H](O)[C@H](O)[C@@H](C)O5)[C@H](O)[C@@H](C)O4)c(C)c(O)c3c(O)c2C(=O)[C@H]1O[C@H]1C[C@@H](O[C@H]2C[C@@H](O[C@H]3C[C@](C)(O)[C@H](O)[C@@H](C)O3)[C@@H](O)[C@@H](C)O2)[C@H](O)[C@@H](C)O1 [YL-C124] | 3.06 |  |  | 0.0224 | 0.169 |  |  |
